Data on one molecule can be found in PMC6934184, “Selective DNA-PKcs inhibition extends the therapeutic index of localized radiotherapy and chemotherapy” (The Journal of Clinical Investigation, 2019).

As usually defined, the inhibition is the relative decrease from the control value, in per cent.

The assay concerns the target T1, EEF2K (Homo sapiens, UniProt O00418).
T1 construct: purchased Thermo Fisher Scientific (Life Technologies) SelectScreen
The assay can be described thus: SelectScreen Z'LYTE. The assay is classed as biochemical. In outline: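 NU5455 was profiled across the SelectScreen Broad panel of kinase activity and binding assays. Z'LYTE reactions such as CSF1R ran at apparent Km ATP, while the Adapta CAMK1 assay used ATP listed as 10. Values are given as percent.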

Consider `CN(C(=O)CN1CCOCC1)c1ccc2sc3c(-c4cccc5c(=O)cc(N6CC7CCC(C6)O7)oc45)cccc3c2c1` [NU5455], for which the inhibition at 1 µM was -2.4%.
